Common to all, as to assay type: cell-based
Assay [1] concerns Acinetobacter baumannii XNWB 0007. Kind of assay: MIC assay of test compounds combined with ceftazidime (8 μg/mL). To be noted: ceftazidime 8 μg/mL fixed. In a few lines:
(§1)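 Checkerboard-free combination MIC: test compound titrated against a constant partner antibiotic in cation-adjusted Mueller-Hinton broth. Inocula prepared from TSA colonies at OD600 0.1-0.15, diluted 300×. Plates shaken, incubated under normal atmosphere at 35±2 °C for 16-20 h; endpoints taken following CLSI.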

The test system of assay [2] is Klebsiella pneumoniae XNWB 0001. The assay is described as above. To be noted: ceftazidime 8 μg/mL fixed. Summed up:
as §1

Assay [3] relates to Klebsiella pneumoniae XNWB 0002. Described as above. Particulars: ceftazidime 8 μg/mL fixed. In a few lines:
as §1

Assay [4] concerns Klebsiella pneumoniae XNWB 0003. The description is as above. Particulars: ceftazidime 8 μg/mL fixed. In a few lines: as §1
Assay [5] concerns Klebsiella pneumoniae XNWB 0004. Described as above. Particulars: ceftazidime 8 μg/mL fixed. Summed up:
as §1

The subject of assay [6] is Klebsiella pneumoniae XNWB 0005. Described as above. To be noted: ceftazidime 8 μg/mL fixed. In a few lines:
as §1

In assay [7] the test system is Klebsiella pneumoniae XNWB 0006. The description is as above. To be noted: ceftazidime 8 μg/mL fixed. Summed up: as §1
In assay [8] the test system is Pseudomonas aeruginosa XNWB 0008. The description is as above. Particulars: ceftazidime 8 μg/mL fixed. Summed up: as §1
The test system of assay [9] is Acinetobacter baumannii XNWB 0007. Nature of the assay: MIC assay of test compounds combined with imipenem (4 μg/mL). Particulars: imipenem 4 μg/mL fixed. Summed up:
as §1

Assay [10] concerns Klebsiella pneumoniae XNWB 0001. Described as above. Particulars: imipenem 4 μg/mL fixed. In a few lines:
as §1

For assay [11], the system named is Klebsiella pneumoniae XNWB 0002. The assay is described as above. Particulars: imipenem 4 μg/mL fixed. In a few lines:
as §1

The test system of assay [12] is Klebsiella pneumoniae XNWB 0003. The assay is described as above. Particulars: imipenem 4 μg/mL fixed. In a few lines:
as §1

For assay [13], the system named is Klebsiella pneumoniae XNWB 0004. The description is as above. To be noted: imipenem 4 μg/mL fixed. Summed up:
as §1

Assay [14] relates to Klebsiella pneumoniae XNWB 0005. Described as above. To be noted: imipenem 4 μg/mL fixed. In a few lines:
as §1

In assay [15] the test system is Klebsiella pneumoniae XNWB 0006. Described as above. To be noted: imipenem 4 μg/mL fixed. Summed up: as §1
Assay [16] relates to Pseudomonas aeruginosa XNWB 0008. Described as above. Particulars: imipenem 4 μg/mL fixed. Summed up: as §1

Counter-ions that a name gives are not always drawn.

From US11078202B2, “β-lactamase inhibitor and use thereof” (priority 2018, dated 2021) come the findings set out here.

As for `O=C(NC1CCNCC1)[C@@H]1CC2(CC2)[C@@H]2CN1C(=O)N2OS(=O)(=O)O` [Example 27, (1R,4S)-6-oxo-4-(piperidin-4-ylaminoformyl)-5,7-diazaspiro[bicyclo[3.2.1]octane-2,1′-cyclopropan]-7-yl sulfate], the “The minimum concentration of test compounds combined with ceftazidime (8 μg/mL) for bacteriostasis” value was “C (C: 16-128 μg/mL)” in assay [1]; “A (A: <8 μg/mL)” in [2]; “A (A: <8 μg/mL)” in assay [3]; “B (B: 8-16 μg/mL)” in assay [4]; “B (B: 8-16 μg/mL)” in [5]; “A (A: <8 μg/mL)” in assay [6]. The “The minimum concentration of test compounds combined with ceftazidime (8 μg/mL) for bacteriostasis” value in [7] and in [8] was “A (A: <8 μg/mL)” throughout. Moreover, the “The minimum concentration of test compounds combined with imipenem (4 μg/mL) for bacteriostasis” value in assay [9] was “C (C: 16-128 μg/mL)”; in assay [10], “A (A: <8 μg/mL)”; in assay [11], “A (A: <8 μg/mL)”; in assay [12], “A (A: <8 μg/mL)”; in [13], “A (A: <8 μg/mL)”; in [14], “A (A: <8 μg/mL)”. The “The minimum concentration of test compounds combined with imipenem (4 μg/mL) for bacteriostasis” value in assay [15] and in assay [16] was “A (A: <8 μg/mL)” in each case.
`N=C(N)NC[C@@H](O)c1nnc([C@@H]2CC3(CC3)[C@@H]3CN2C(=O)N3OS(=O)(=O)O)o1` [Example 11, (1R,4S)-4-(5-((R)-2-guanidyl-1-hydroxyethyl)-1,3,4-oxadiazol-2-yl)-6-oxo-5,7-diazaspiro[bicyclo[3.2.1]octane-2,1′-cyclopropan]-7-yl sulfate]: the “The minimum concentration of test compounds combined with ceftazidime (8 μg/mL) for bacteriostasis” value in assay [1] is listed as “C (C: 16-128 μg/mL)”; in [2] it was “A (A: <8 μg/mL)”; in [3], “A (A: <8 μg/mL)”; in [4], “A (A: <8 μg/mL)”; in assay [5], “A (A: <8 μg/mL)”; in assay [6], “A (A: <8 μg/mL)”. Besides, the “The minimum concentration of test compounds combined with ceftazidime (8 μg/mL) for bacteriostasis” value in [7] is “A (A: <8 μg/mL)”; in assay [8], “C (C: 16-128 μg/mL)”. Also, the “The minimum concentration of test compounds combined with imipenem (4 μg/mL) for bacteriostasis” value was “B (B: 8-16 μg/mL)” in [9]; “A (A: <8 μg/mL)” in assay [10]; “A (A: <8 μg/mL)” in assay [11]; “A (A: <8 μg/mL)” in assay [12]; “A (A: <8 μg/mL)” in assay [13]; “A (A: <8 μg/mL)” in assay [14]. The “The minimum concentration of test compounds combined with imipenem (4 μg/mL) for bacteriostasis” value was “A (A: <8 μg/mL)” in assay [15] and “B (B: 8-16 μg/mL)” in [16].
As for `N=C(N)NC[C@@H](O)c1cc([C@@H]2CC3(CC3)[C@@H]3CN2C(=O)N3OS(=O)(=O)O)no1` [Example 40, (1R,4S)-4-(5-((R)-2-guanidyl-1-hydroxyethyl)isoxazol-3-yl)-6-oxo-5,7-diazaspiro [bicyclo[3.2.1]octane-2,1′-cyclopropan]-7-yl sulfate], the “The minimum concentration of test compounds combined with ceftazidime (8 μg/mL) for bacteriostasis” value is given as “C (C: 16-128 μg/mL)” in assay [1]; “A (A: <8 μg/mL)” in assay [2]; “A (A: <8 μg/mL)” in assay [3]; “A (A: <8 μg/mL)” in assay [4]; “A (A: <8 μg/mL)” in assay [5]; “A (A: <8 μg/mL)” in assay [6]. In addition, the “The minimum concentration of test compounds combined with ceftazidime (8 μg/mL) for bacteriostasis” value is recorded as “A (A: <8 μg/mL)” in [7] and “B (B: 8-16 μg/mL)” in [8]. Also, the “The minimum concentration of test compounds combined with imipenem (4 μg/mL) for bacteriostasis” value in [9] is “C (C: 16-128 μg/mL)”; in assay [10] it was “A (A: <8 μg/mL)”; in assay [11] it was “A (A: <8 μg/mL)”; in assay [12], “A (A: <8 μg/mL)”; in assay [13], “A (A: <8 μg/mL)”; in assay [14], “A (A: <8 μg/mL)”. For the same molecule, the “The minimum concentration of test compounds combined with imipenem (4 μg/mL) for bacteriostasis” value in assay [15] and in assay [16] was “A (A: <8 μg/mL)” in each case.
Turning to `N=C1NC[C@H](c2nnc([C@@H]3CC4(CC4)[C@@H]4CN3C(=O)N4OS(=O)(=O)O)o2)N1` [Example 56, (1R,4S)-4-(5-((R)-2-iminoimidazolidin-4-yl)-1,3,4-oxadiazol-2-yl)-6-oxo-5,7-diazaspiro[bicyclo[3.2.1]octane-2,1′-cyclopropan]-7-yl sulfate], the “The minimum concentration of test compounds combined with ceftazidime (8 μg/mL) for bacteriostasis” value is listed as “C (C: 16-128 μg/mL)” in [1]; “A (A: <8 μg/mL)” in [2]; “A (A: <8 μg/mL)” in [3]; “A (A: <8 μg/mL)” in [4]; “A (A: <8 μg/mL)” in [5]; “A (A: <8 μg/mL)” in assay [6]. The “The minimum concentration of test compounds combined with ceftazidime (8 μg/mL) for bacteriostasis” value in [7] is “A (A: <8 μg/mL)”; in assay [8], “B (B: 8-16 μg/mL)”. Besides, the “The minimum concentration of test compounds combined with imipenem (4 μg/mL) for bacteriostasis” value in [9] is given as “B (B: 8-16 μg/mL)”; in assay [10] it was “A (A: <8 μg/mL)”; in assay [11], “A (A: <8 μg/mL)”; in assay [12], “A (A: <8 μg/mL)”; in [13], “A (A: <8 μg/mL)”; in [14] it was “A (A: <8 μg/mL)”. Further, the figures for the “The minimum concentration of test compounds combined with imipenem (4 μg/mL) for bacteriostasis” value in assay [15] and in assay [16] were “A (A: <8 μg/mL)” and “B (B: 8-16 μg/mL)”, respectively.
For `N=C(N)NC[C@H](O)c1nnc([C@@H]2CC3(CC3)[C@@H]3CN2C(=O)N3OS(=O)(=O)O)o1` [Example 12, (1R,4S)-4-(5-((S)-2-guanidyl-1-hydroxyethyl)-1,3,4-oxadiazol-2-yl)-6-oxo-5,7-diazaspiro[bicyclo[3.2.1]octane-2,1′-cyclopropan]-7-yl sulfate], the “The minimum concentration of test compounds combined with ceftazidime (8 μg/mL) for bacteriostasis” value in [1] is recorded as “C (C: 16-128 μg/mL)”; in assay [2] it was “B (B: 8-16 μg/mL)”; in assay [3], “A (A: <8 μg/mL)”; in assay [4] it was “A (A: <8 μg/mL)”; in [5] it was “B (B: 8-16 μg/mL)”; in assay [6], “A (A: <8 μg/mL)”. In addition, the results for the “The minimum concentration of test compounds combined with ceftazidime (8 μg/mL) for bacteriostasis” value in assay [7] and in [8] were “A (A: <8 μg/mL)” and “C (C: 16-128 μg/mL)”, respectively. Moreover, the “The minimum concentration of test compounds combined with imipenem (4 μg/mL) for bacteriostasis” value in [9] is listed as “B (B: 8-16 μg/mL)”; in assay [10], “A (A: <8 μg/mL)”; in assay [11], “A (A: <8 μg/mL)”; in [12], “A (A: <8 μg/mL)”; in assay [13], “A (A: <8 μg/mL)”; in assay [14] it was “A (A: <8 μg/mL)”. Further, the “The minimum concentration of test compounds combined with imipenem (4 μg/mL) for bacteriostasis” value in [15] was “A (A: <8 μg/mL)”; in [16] it was “B (B: 8-16 μg/mL)”.
